Pest or weed control, inhibition of growth and melting point data for 20 compounds are collected here from patent publication US10477864B2, “Microbiocidal quinoline (thio)carboxamide derivatives” (priority 2016, dated 2019).

Molecules are shown by their SMILES.

For series [1], the system named is Fusarium culmorum. Put plainly: whole plant or invertebrate. Format: in vivo. The following applies: in Triticum aestivum, read-out: control of Fusarium culmorum.
For series [2], the system named is Botryotinia fuckeliana (Botrytis cinerea). The series can be described thus: Botryotinia fuckeliana (Botrytis cinerea) / liquid culture (gray mould). Format: cell-based. The following applies: 72 h, read-out: control of Botryotinia fuckeliana.
The subject of series [3] is Magnaporthe grisea (Pyricularia oryzae). The series can be described thus: microbe, parasite or virus in culture. Format: cell-based. The following applies: 72 h, read-out: control of Magnaporthe grisea.
Series [4] concerns Fusarium culmorum. Put plainly: microbe, parasite or virus in culture. Format: cell-based. The note with it: read-out: control of Fusarium culmorum.
Series [5] relates to Glomerella lagenarium (Colletotrichum lagenarium). Put plainly: Glomerella lagenarium (Colletotrichum lagenarium) / liquid culture (anthracnose). Format: cell-based. The following applies: Colletotrichum orbiculare; read-out: control of Glomerella lagenarium.
Series [6] deals with Monographella nivalis (Microdochium nivale). The series can be described thus: Monographella nivalis (Microdochium nivale) / liquid culture (foot rot cereals). In kind it is cell-based. The note with it: 96 h, read-out: control of Monographella nivalis.

What is called melting point is the temperature, or range, at which the solid turns liquid. On to `O=C(NC(CCC(F)(F)F)Cc1ccccc1)c1cnc2c(F)cccc2c1` (stereo not shown) [Compound E-16, N-(1-benzyl-4,4,4-trifluoro-butyl)-8-fluoro-quinoline-3-carboxamide], for which the melting point fell in the range of 157 to 161 °C. Moreover, the pest or weed control at 200 ppm in the series with Fusarium culmorum [1] was not below 80%. The inhibition of growth at 200 ppm in series [2] was not below 80%. Further, the inhibition of growth at 200 ppm in series [3] was not below 80%. Besides, the inhibition of growth at 200 ppm in the series with Fusarium culmorum [4] is not below 80%.
In turn, `CC(C)CC(C)(Cc1ccc(C#N)cc1)NC(=O)c1cnc2c(F)cccc2c1` (stereo not shown) [Compound E-32, N-[1-[(4-cyanophenyl)methyl]-1,3-dimethyl-butyl]-8-fluoro-quinoline-3-carboxamide] showed a melting point of 67 to 69 °C. For the same compound, the inhibition of growth at 200 ppm in series [5] was not below 80%. Moreover, the inhibition of growth at 200 ppm in series [2] was not below 80%. Further, the inhibition of growth at 200 ppm in series [3] is not below 80%. Moreover, in the series on Fusarium culmorum [4], the inhibition of growth at 200 ppm was not below 80%.
`CC(C)CC(C)(Cc1ccccc1C#N)NC(=O)c1cnc2c(F)cccc2c1` (stereo not shown) [Compound E-44, N-[1-[(2-cyanophenyl)methyl]-1,3-dimethyl-butyl]-8-fluoro-quinoline-3-carboxamide] registered a melting point of 43 to 44 °C. In series [5], the inhibition of growth at 200 ppm is not below 80%. For the same compound, in the series with Fusarium culmorum [1], the pest or weed control at 200 ppm was not below 80%. In series [2], the inhibition of growth at 200 ppm was not below 80%. The inhibition of growth at 200 ppm in series [3] is not below 80%. Also, the inhibition of growth at 200 ppm in the series on Fusarium culmorum [4] was not below 80%.
Turning to `CC(F)(F)CC(C)(Cc1ccccc1)NC(=O)c1cnc2c(F)cccc2c1` (stereo not shown) [Compound E-50, N-(1-benzyl-3,3-difluoro-1-methyl-butyl)-8-fluoro-quinoline-3-carboxamide], the inhibition of growth at 200 ppm (in series [5]; in series [2]; in series [3]; in the series with Fusarium culmorum [4]) was not below 80% throughout. The pest or weed control at 200 ppm in the series on Fusarium culmorum [1] was not below 80%.
In the case of `C=C(C)CC(C)(NC(=O)c1cnc2c(F)cccc2c1)C(F)(F)c1ccccc1` (stereo not shown) [Compound E-51, N-[1-[difluoro(phenyl)methyl]-1,3-dimethyl-but-3-enyl]-8-fluoro-quinoline-3-carboxamide], the inhibition of growth at 200 ppm (in series [5]; in series [2]; in series [3]; with Fusarium culmorum [4]) was not below 80% each time. The pest or weed control at 200 ppm in the series on Fusarium culmorum [1] was not below 80%.
In turn, `CC(F)(F)CC(C)(Cc1ccccc1)NC(=O)c1cnc2ccccc2c1` (stereo not shown) [Compound E-52, N-(1-benzyl-3,3-difluoro-1-methyl-butyl)quinoline-3-carboxamide] came in with a melting point of 131 to 133 °C. Also, in series [5], the inhibition of growth at 200 ppm was not below 80%. In addition, the pest or weed control at 200 ppm with Fusarium culmorum [1] was not below 80%. Further, the inhibition of growth at 200 ppm in series [2] is not below 80%. Also, the inhibition of growth at 200 ppm in series [3] was not below 80%. Moreover, the inhibition of growth at 200 ppm with Fusarium culmorum [4] was not below 80%.
With `CC(Cc1ccccc1)(CC(F)(F)F)NC(=O)c1cnc2c(C#N)cccc2c1` (stereo not shown) [Compound E-62, N-(1-benzyl-3,3,3-trifluoro-1-methyl-propyl)-8-cyano-quinoline-3-carboxamide], the melting point was 175 to 179 °C. The inhibition of growth at 200 ppm in series [5] was not below 80%. Further, the pest or weed control at 200 ppm with Fusarium culmorum [1] was not below 80%. Moreover, the inhibition of growth at 200 ppm in series [2] was not below 80%. Further, the inhibition of growth at 200 ppm in series [3] is not below 80%. Besides, the inhibition of growth at 200 ppm in the series on Fusarium culmorum [4] is not below 80%.
Compound `CC(C)CC(C)(Cc1ccccc1)NC(=O)c1cnc2cc(Cl)ccc2c1` (stereo not shown) [Compound E-65, N-(1-benzyl-1,3-dimethyl-butyl)-7-chloro-quinoline-3-carboxamide] registered a melting point of 172 to 174 °C. Also, the inhibition of growth at 200 ppm in series [2] was not below 80%. For the same compound, the inhibition of growth at 200 ppm in series [3] was not below 80%. Further, the inhibition of growth at 200 ppm in the series on Fusarium culmorum [4] is not below 80%.
For the compound `CC(Cc1ccc(F)cc1)(CC(F)(F)F)NC(=O)c1cnc2c(F)cccc2c1` (stereo not shown) [Compound E-66, 8-fluoro-N-[3,3,3-trifluoro-1-[(4-fluorophenyl)methyl]-1-methyl-propyl]quinoline-3-carboxamide], the melting point lay in the range of 146 to 147 °C. Besides, the inhibition of growth at 200 ppm in series [5] is not below 80%. Also, the pest or weed control at 200 ppm with Fusarium culmorum [1] was not below 80%. Further, the inhibition of growth at 200 ppm in series [2] is not below 80%. In series [3], the inhibition of growth at 200 ppm was not below 80%. The inhibition of growth at 200 ppm in the series on Fusarium culmorum [4] was not below 80%.
In turn, `CC(Cc1cccc(F)c1)(CC(F)(F)F)NC(=O)c1cnc2c(F)cccc2c1` (stereo not shown) [Compound E-99, 8-fluoro-N-[3,3,3-trifluoro-1-[(3-fluorophenyl)methyl]-1-methyl-propyl]quinoline-3-carboxamide] returned a melting point of 149 to 151 °C. In addition, the inhibition of growth at 200 ppm in series [5] is not below 80%. Further, the pest or weed control at 200 ppm with Fusarium culmorum [1] was not below 80%. The inhibition of growth at 200 ppm in series [2] was not below 80%. The inhibition of growth at 200 ppm with Fusarium culmorum [4] was not below 80%. Moreover, the inhibition of growth at 200 ppm in series [6] is not below 80%.
`C=C(C)CC(COC)(Cc1ccccc1)NC(=O)c1cnc2c(F)cccc2c1` (stereo not shown) [Compound E-103, N-[1-benzyl-1-(methoxymethyl)-3-methyl-but-3-enyl]-8-fluoro-quinoline-3-carboxamide] gave a melting point of 147 to 149 °C. Also, in series [5], the inhibition of growth at 200 ppm is not below 80%. In the series with Fusarium culmorum [1], the pest or weed control at 200 ppm is not below 80%. In addition, in series [2], the inhibition of growth at 200 ppm is not below 80%. Further, in the series with Fusarium culmorum [4], the inhibition of growth at 200 ppm was not below 80%. Besides, the inhibition of growth at 200 ppm in series [6] was not below 80%.
Turning to `CC(Cc1ccccc1)(CC1CCC1)NC(=O)c1cnc2c(F)cccc2c1` (stereo not shown) [Compound E-112, N-(1-benzyl-2-cyclobutyl-1-methyl-ethyl)-8-fluoro-quinoline-3-carboxamide], the melting point was in the range of 125 to 127 °C. The inhibition of growth at 200 ppm in series [5] is not below 80%. Also, in series [2], the inhibition of growth at 200 ppm is not below 80%. Moreover, the inhibition of growth at 200 ppm in the series on Fusarium culmorum [4] was not below 80%. The inhibition of growth at 200 ppm in series [6] is not below 80%.
In the case of `COC(C)(C)CC(C)(Cc1ccccc1)NC(=O)c1cnc2c(F)cccc2c1` (stereo not shown) [Compound E-118, N-(1-benzyl-3-methoxy-1,3-dimethyl-butyl)-8-fluoro-quinoline-3-carboxamide], the melting point lay in the range of 118 to 120 °C. Moreover, the inhibition of growth at 200 ppm in series [5] was not below 80%. The inhibition of growth at 200 ppm in series [2] was not below 80%. Further, the inhibition of growth at 200 ppm with Fusarium culmorum [4] is not below 80%. The inhibition of growth at 200 ppm in series [6] is not below 80%.
For `COc1ccc2cc(C(=O)NC(C)(Cc3ccccc3)CC(C)C)cnc2c1` (stereo not shown) [Compound E-122, N-(1-benzyl-1,3-dimethyl-butyl)-7-methoxy-quinoline-3-carboxamide], the melting point was in the range of 136 to 138 °C. The inhibition of growth at 200 ppm in series [6] is not below 80%.
Compound `COc1cccc2cc(C(=O)NC(C)(Cc3ccccc3)CC(C)C)cnc12` (stereo not shown) [Compound E-123, N-(1-benzyl-1,3-dimethyl-butyl)-8-methoxy-quinoline-3-carboxamide] returned a melting point of 155 to 156 °C. The inhibition of growth at 200 ppm in series [2] is not below 80%. Besides, the inhibition of growth at 200 ppm in the series with Fusarium culmorum [4] was not below 80%. For the same compound, the inhibition of growth at 200 ppm in series [6] was not below 80%.
As for `Cc1c(C(=O)N[C@@](C)(Cc2ccccc2)CC(F)(F)F)cnc2c(F)cccc12` [Compound F-29, N-[(1S)-1-benzyl-3,3,3-trifluoro-1-methyl-propyl]-8-fluoro-4-methyl-quinoline-3-carboxamide], the inhibition of growth at 200 ppm (in series [5]; in series [2]; in the series with Fusarium culmorum [4]; in series [6]) was not below 80% each time. Further, in the series with Fusarium culmorum [1], the pest or weed control at 200 ppm is not below 80%.
Consider `C[C@](Cc1ccccc1)(CC(F)F)NC(=O)c1cnc2c(F)cccc2c1` [Compound F-32, N-[(1S)-1-benzyl-3,3-difluoro-1-methyl-propyl]-8-fluoro-quinoline-3-carboxamide], for which the inhibition of growth at 200 ppm (in series [5]; in series [2]; with Fusarium culmorum [4]; in series [6]) was not below 80% each time. Moreover, the pest or weed control at 200 ppm in the series on Fusarium culmorum [1] is not below 80%.
With `C[C@](Cc1ccccc1)(CC(F)(F)F)NC(=O)c1cnc2c(F)c(F)ccc2c1` [Compound F-37, N-[(1S)-1-benzyl-3,3,3-trifluoro-1-methyl-propyl]-7,8-difluoro-quinoline-3-carboxamide], the inhibition of growth at 200 ppm (in series [5]; in series [2]; in series [3]; in the series on Fusarium culmorum [4]) was not below 80% throughout. In the series with Fusarium culmorum [1], the pest or weed control at 200 ppm is not below 80%.
In the case of `C[C@@](Cc1ccccc1)(CC(F)(F)F)NC(=O)c1cnc2c(F)c(F)ccc2c1` [Compound F-38, N-[(1R)-1-benzyl-3,3,3-trifluoro-1-methyl-propyl]-7,8-difluoro-quinoline-3-carboxamide], the inhibition of growth at 200 ppm (in series [5]; in series [2]; in series [3]; in the series with Fusarium culmorum [4]) was not below 80% throughout.
Take `CC(F)(F)C[C@@](C)(Cc1ccccc1)NC(=O)c1cnc2c(F)cccc2c1` [Compound F-40, N-[(1R)-1-benzyl-3,3-difluoro-1-methyl-butyl]-8-fluoro-quinoline-3-carboxamide]: the inhibition of growth at 200 ppm (in series [5]; in series [2]; in series [3]; in the series on Fusarium culmorum [4]) was not below 80% in each case. In the series on Fusarium culmorum [1], the pest or weed control at 200 ppm is not below 80%.
